In BindingDB's records for patent US20250282736 (ST. JUDE CHILDREN''S RESEARCH HOSPITAL, 2025):

Target: T1, PXR (Nuclear receptor subfamily 1 group I member 2) (Homo sapiens, UniProt O75469)
T1 sequence (O75469 whole entry): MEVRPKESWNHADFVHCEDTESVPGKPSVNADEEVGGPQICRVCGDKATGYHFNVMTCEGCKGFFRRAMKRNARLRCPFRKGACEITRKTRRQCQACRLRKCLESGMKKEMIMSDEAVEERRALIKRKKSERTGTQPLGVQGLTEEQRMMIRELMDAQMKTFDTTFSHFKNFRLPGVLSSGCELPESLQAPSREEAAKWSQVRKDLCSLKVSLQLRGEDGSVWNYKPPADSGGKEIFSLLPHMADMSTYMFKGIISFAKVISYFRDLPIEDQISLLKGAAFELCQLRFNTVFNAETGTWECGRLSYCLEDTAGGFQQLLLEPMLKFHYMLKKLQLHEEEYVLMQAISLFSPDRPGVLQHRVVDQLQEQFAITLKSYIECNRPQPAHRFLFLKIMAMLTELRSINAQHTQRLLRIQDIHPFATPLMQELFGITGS
Test: In Vitro Assay
Text: PXR can be determined in an in vitro assay system. Such in vitro assay systems include assay such as the assays as described herein.

IC50 [nM]	SMILES
360	COc1ccc(Cl)cc1-n1nnc(C(=O)Nc2cc(C(C)(C)C)ccc2OCC(=O)O)c1C [US20250282736, Compound B25]
3.8	CCCC(CC)Oc1ccc(C(C)(C)C)cc1NC(=O)c1nnn(-c2cc(OC)ccc2OC)c1C (configuration not stated) [US20250282736, Compound J1]
